Measured values reported in US11583528B2, “FFA1 (GPR40) as a therapeutic target for neural angiogenesis diseases or disorders” (Children's Medical Center Corporation, priority 2016, dated 2023).
“Also recorded” adds a separate entry of the source.

Assays:
pancreatic β-cell = settings: by reducing β-cell overload; cited from earlier work
Vldlr−/− mice = assay: Quantification of RAP-like retinal vascular lesions in Vldlr−/− mice; format: in vivo, mouse; settings: Vldlr−/− pups treated from P8 to P15, lesions quantified at P16, versus vehicle control
Source text: (§1) All studies adhered to the NIH guide for the Care and Use of laboratory animals, the Association for Research in Vision and Ophthalmology (ARVO) Statement for the Use of Animals in Ophthalmic and Vision Research and were approved by the Institutional Animal Care and Use Committee at Boston Children's Hospital. Vldlr knockout mice (Vldlr^−/−; Jackson Lab Stock: 002529) were crossed with wild type C57Bl/6 mice to obtain heterozygous breeders for littermate controlled experiments. Vldlr^−/− mice were also crossed with Ffar1 knockout mice (Ffar1^−/−)^1 to ultimately obtain Vldlr^−/−/Ffar1^−/+ heterozygous breeders and double knockout mice (Vldlr^−/−/Ffar1^−/−). Pups weighing less than 5 grams or more than 7 grams at postnatal day (P)16 were excluded (Stahl, A., et al. Am J Pathol 177, 2715-2723 (2010)). Littermate Vldlr^−/− pups were treated from P8 to P15 with WY164363 (50 mg/kg once daily, intraperitoneal; Sigma), GW9508 (14 μM, once daily intraperitoneal; Cayman), TAK-875 (15 mg/kg twice daily, gavage; Selleckchem), medium chain triglyceride oil (MCT, 20 μL once daily gavage; Nestle) or corresponding vehicle and sacrificed at P16 to quantify retinal vascular lesions. Mice pups of both genders were used.
For quantification of outer retina vascular lesions, reminiscent of retinal angiomatous proliferation (RAP) or macular telangiectasia (MacTel), mice were euthanized with a mixture of xylazine and ketamine and eyes were enucleated and fixed in 4% paraformaldehyde for 1 h at room temperature. […] For quantification of retinal lesions 20 images of each whole-mounted retina were obtained at 10× magnification on a Zeiss AxioObserver.Z1 microscope and merged to form one image using AxioVision 4.6.3.0 software. Vascular lesion counts were analyzed using the SWIFT_MACTEL method, an adaptation of the method used to measure neovascularization (SWIFT_NV) (Stahl, A., et al. Angiogenesis 12, 297-301 (2009) in the oxygen induced retinopathy model. […]

Hif1α [1] = assay: Retinal Hif1α stabilization after in vivo treatment (Western blot); set-up: species or system mouse
Procedure: (§2) Retinal samples were obtained as described above. Retinal lysate (20 μg) from three different animals or endothelial cells lysate (10 μg) were loaded on an SDS-PAGE gel and electroblotted onto a PVDF membrane. After blocking, the membranes were incubated with antibodies against β-Actin (Sigma, A1978), Hif1α (Novus, NB100-134), and Glut1 (Novus, NB300-666 and Abcam, Ab652) overnight (1:1000 each). After washing, membranes were incubated with 1:10,000 horseradish peroxidase-conjugated anti-rabbit or anti-mouse secondary antibodies (Amersham, NA931V and NA934V) for one hour at room temperature. Densitometry was analyzed using ImageJ. Retinal Vegfa concentration was measured by ELISA (as per manual, MMV00, R&D Systems) and normalized by doing a Bradford to measure the total cell protein content of each samples.

Glut1 [2] = assay: Glut1 expression in photoreceptor (661W) cells; format: cell-based; settings: 661W photoreceptors
Procedure: RNA samples from cell culture, whole retina or laser-captured neovessels and layers were treated with DNase I (Qiagen, Chatsworth, Calif.) to remove any contaminating genomic DNA. The DNase-treated RNA was then converted into cDNA using reverse transcriptase (Invitrogen). PCR primers for target genes and the control gene, cyclophilin A, were designed using Primer Bank and NCBI Primer Blast software. Quantitative analysis of gene expression was generated using an ABI Prism 7700 Sequence Detection System with the SYBR Green Master mix kit and gene expression was calculated relative to cyclophilin A using the ΔcT method.
Cone photoreceptor cells (al-Ubaidi, M. R., J Cell Biol 119, 1681-1687 (1992), and Tan, E., et al. Invest Ophthalmol Vis Sci 45, 764-768 (2004)) (661W; from Dr. Al-Ubaidi) were cultured as monolayers at 37° C., 5% CO2 in a humidified atmosphere in DMEM with FBS 10% supplemented with hydrocortisone (20 μg/500 mL, H-2270, Sigma), Progesterone (20 μg/500 mL, P-8783, Sigma), Putrescine (0.016 g/500 mL, P-7505, Sigma) and β-mercaptoethanol (20 μL/500 mL, M-6250, Sigma). […] Photoreceptors were then collected 8 hours post-treatment for Hif1α protein expression (see Western blot); while their medium was collected at 12 hours for Vegfa quantification by ELISA (as per manual, MMV00, R&D Systems). […]

Glut1 [3] = assay: Retinal Glut1 expression after in vivo treatment (qRT-PCR / Western blot); set-up: species or system mouse; settings: versus control
Source text: as §1, with “Pups weighing less than 5 grams or more than 7 grams at postnatal day (P)16 were excluded (Stahl, A., et al. Am J Pathol 177, 2715-2723 (2010)).” left out, “Mice pups of both genders were used.” left out
Retinal samples were obtained as described above. […] Densitometry was analyzed using ImageJ. Retinal Vegfa concentration was measured by ELISA (as per manual, MMV00, R&D Systems) and normalized by doing a Bradford to measure the total cell protein content of each samples.

WT and Vldlr−/− mice = assay: Retinal glucose uptake (3H-2-deoxyglucose tracer) in treated pups; format: in vivo, mouse; settings: WT and Vldlr−/− retinas; GW9508 14 μM daily i.p. for 5 days (P7-P12)
Procedure: Positron emission tomography (PET) imaging studies were performed on WT, Vldlr^−/−/Ffar1^−/and Ffar1^−/− mice (P16; Focus 120 high-resolution, Siemens), followed by micro CAT imaging (MicroCAT II scanner, Siemens). Fluorine-18 fluorodeoxyglucose FDG) was administered by intraperitoneal injection (i.p.) to obtain nontoxic radioactivity levels (3.7 and 37 MBq; or 0.1 to 1.0 mCi). Actual administered activity was determined using a dose calibrator to measure activity in the syringe before and after the injection. Images were acquired 60 minutes after injection to ensure radiotracer uptake. Mice were fasted for 6 hours prior to imaging, kept in darkness and anesthetized by inhalation of isoflurane (2-4%) through a nose cone for the duration of the procedure. Animals were imaged in a head first, prone position, and placed on a heating pad to maintain appropriate body temperature. Upon completion of imaging, mice were euthanized and retinas were dissected for precise ^18F-FDG retinal activity, quantification by gamma counter, and corrected for decay. […] Retinas were collected and homogenized in a scintillation cocktail (Ecolite+, MP biomedicals) and betacounts measured using the LS6500 Multipurpose Scintillation Counter (Beckman).

Hif1α [4] = assay: Hif1α protein in photoreceptor (661W) cells (Western blot); format: cell-based; settings: 661W photoreceptors, 8 hours post-treatment
Procedure: as §2
Cone photoreceptor cells (al-Ubaidi, M. R., J Cell Biol 119, 1681-1687 (1992), and Tan, E., et al. Invest Ophthalmol Vis Sci 45, 764-768 (2004)) (661W; from Dr. Al-Ubaidi) were cultured as monolayers at 37° C., 5% CO2 in a humidified atmosphere in DMEM with FBS 10% supplemented with hydrocortisone (20 μg/500 mL, H-2270, Sigma), Progesterone (20 μg/500 mL, P-8783, Sigma), Putrescine (0.016 g/500 mL, P-7505, Sigma) and β-mercaptoethanol (20 μL/500 mL, M-6250, Sigma). Equal number of 661W cells (0.3×106) were plated in 6-well dishes and cultured to 80% confluence. […]

photoreceptors (661W) [5] = assay: Glucose uptake of photoreceptor (661W) cells; format: cell-based; settings: 661W photoreceptors
Procedure: Whole retinas and photoreceptors (661W) were incubated in assay media (DMEM 5030, 12 mM glucose, 10 mM HEPES) for 6 and 48 hours respectively. Media was collected, spun briefly (13 g) to remove cellular debris, and glucose and lactate levels measured using a Yellow Springs Instrument (YSI) 2950 were compared to control media that was not exposed to tissue or cells. To determine the conversion of glucose to lactate (the glycolytic rate), lactate production was divided by glucose uptake.

retinas = assay: Oxygen consumption rate of ex vivo retinas (Seahorse XFe96); format: cell-based, mouse; settings: WT retinal explants with palmitate, etomoxir 40 μM
Procedure: (§3) All oxygen consumption rates were measured using a Seahorse XFe96 Flux Analyzer®. Whole retinas were isolated and 1 mm punch biopsies were loaded into the 96 well plate. Retinal punches were incubated in assay media (DMEM 5030 media supplemented with 12 mM glucose, 10 mM HEPES and 26 mM NaHCO3) to measure oxygen consumption rates (OCR) and extracellular acidification rates (ECAR). Photoreceptor (661W) cells, were incubated in their assay media (DMEM 5030, 12 mM glucose, 10 mM HEPES) one hour prior to measurements. Fatty acid oxidation rates were determined by treating tissues or cells with Etomoxir (40 μM; Sigma) 40 min prior to analysis and then providing BSA (control) or BSA/Palmitate conjugate (Seahorse). Glucose oxidation rates were measured after injection of 2-deoxyglucose (2-DG, 100 mM; Sigma) or media control during data acquisition. To determine the maximal fatty acid or glucose oxidative capacity, the nonmitochondrial respiration (rate after injection of 2 μM Rotenone and 2 μM Antimycin A) was subtracted from the oxygen consumption rate after injection of 0.5 μM carbonyl cyanide-ptrifluoromethoxyphenylhydrazone (FCCP).

photoreceptors (661W) [6] = assay: Oxygen consumption and extracellular acidification rates of photoreceptor (661W) cells (Seahorse XFe96); format: cell-based
Procedure: as §3

Q: Which “pancreatic β-cell dysfunction” value (pancreatic β-cell) does the source give for CCCCc1ccc(NS(=O)(=O)c2ccc(F)cc2)cc1 [DC260126, N-(4-Butylphenyl)-4-fluoro-benzenesulfonamide] here?
A: Its value is “protect”.

Q: With Cc1cccc(Nc2cc(Cl)nc(SCC(=O)O)n2)c1C [WY16463] as the compound, how does the “number of RAP-like pathologic vascular lesions” value (Vldlr−/− mice) read?
A: Its value is “reduced”.

Q: For O=C(O)CCc1ccc(NCc2cccc(Oc3ccccc3)c2)cc1 [GW9508], which “Hif1α stabilization in retina” value (Hif1α [1]; Vldlr−/− retinas) is on record?
A: The value was “stabilized”.

Q: And the “Hif1α stabilization in retina” value (Hif1α [1]; WT retinas)?
A: The value was “stabilized”.

Q: What about the Glut1 expression (Glut1 [2]) of the same compound?
A: The Glut1 expression was “suppression”.

Q: And the “Glut1 expression in retina” value (Glut1 [3]; WT and Vldlr−/− retinas)?
A: The value was “reduces; also recorded: suppressed”.

Q: And the “number of RAP-like pathologic vascular lesions” value (Vldlr−/− mice)?
A: Its value is “more than doubled”.

Q: And the “retinal glucose uptake (3H-2-DG tracer)” value (WT and Vldlr−/− mice)?
A: The value was “suppressed; also recorded: reduction”.

Q: And the Hif1α stabilization (Hif1α [4])?
A: The Hif1α stabilization was “stabilized; also recorded: stabilization”.

Q: What about the glucose uptake (photoreceptors (661W) [5]) of the same compound?
A: Its glucose uptake is “decreased”.

Q: For CCOC(=O)[C@@]1(CCCCCCOc2ccc(Cl)cc2)CO1 [Etomoxir], which “mitochondrial respiration (OCR) with FA oxidation inhibitor” value (retinas) is on record?
A: The value was “abrogated”.

Q: What about the “effect on the increase in respiration (OCR)” value (photoreceptors (661W) [6]; 661W photoreceptors with palmitate, etomoxir 40 μM) of the same compound?
A: The value was “abrogated”.

Q: With Cc1cc(OCCCS(C)(=O)=O)cc(C)c1-c1cccc(COc2ccc3c(c2)OC[C@H]3CC(=O)O)c1 [TAK-875] as the compound, how does the “Glut1 expression in retina” value (Glut1 [3]; Vldlr−/− retinas only) read?
A: Its value is “increased Glut1 suppression”.

Q: And the “number of RAP-like pathologic vascular lesions” value (Vldlr−/− mice)?
A: Its value is “significantly increased and more”.

Q: For CCCCCCCN(CCc1ccc(SC(C)(C)C(=O)O)cc1)C(=O)Nc1ccc(F)cc1F [GW9578], which “extracellular acidification rate (ECAR), reflecting lactate production from glycolysis” value (photoreceptors (661W) [6]; 661W photoreceptors, GW9578 100 nM, 48 hours) is on record?
A: Its value is “without significantly affecting; also recorded: not detectably affected”.

Q: What about the “mitochondrial respiration by FA β-oxidation (OCR)” value (photoreceptors (661W) [6]; 661W photoreceptors, palmitate, GW9578 100 nM, 48 hours) of the same compound?
A: Its value is “induced; also recorded: further increased”.

Q: Which “effect on FFA1-mediated Glut1 suppression by GW9508” value (Glut1 [2]; PD98059, 20 μM, SP600125, Ffar1 siRNA) does the source give for COc1cccc(-c2cc(=O)c3ccccc3o2)c1N [PD98059] here?
A: Its value is “prevented”.
